Here are results for 21 molecules from US12084472B2 (Ardelyx, Inc., priority 2015, dated 2024).

Some results are limits rather than exact numbers.

For the test, the target named is T1, human TGR5 (Homo sapiens, UniProt Q8TDU6).
T1 construct: expressed in transfected cells; host or cells: HEK293
T1 sequence (Q8TDU6 1-330): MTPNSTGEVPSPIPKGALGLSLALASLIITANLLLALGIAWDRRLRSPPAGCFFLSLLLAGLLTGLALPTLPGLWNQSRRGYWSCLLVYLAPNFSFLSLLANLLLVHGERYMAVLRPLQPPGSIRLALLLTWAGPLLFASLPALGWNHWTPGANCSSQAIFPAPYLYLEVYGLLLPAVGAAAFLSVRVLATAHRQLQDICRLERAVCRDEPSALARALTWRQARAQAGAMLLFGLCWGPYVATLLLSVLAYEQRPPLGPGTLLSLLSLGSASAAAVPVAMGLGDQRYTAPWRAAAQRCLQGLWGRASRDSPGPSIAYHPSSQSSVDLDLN
Briefly: Cell-based TGR5 assay (cAMP generation, HTRF). The following applies: HEK293 cells stably transfected with human TGR5; cAMP by HTRF; 30 minutes at 37° C.; read-out: pEC50 Human TGR5 (converted). A digest of the protocol:
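Read-out was HTRF detection of cAMP, converted to concentration via a standard curve and fitted (3-parameter logistic) for pEC50 and maximal response. Agonist stimulation used HEK293 cells stably transfected with human TGR5, incubated 30 min at 37° C in IBMX-containing buffer at 0.05 nM to 10 μM compound.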
On to `O=C(NCCOCCSc1ccc(Cl)c(COC2(c3cnccc3-c3ccccc3OC3CC3)CC2)c1)N[C@@H](CO)[C@@H](O)[C@H](O)[C@H](O)CO` [Compound I-637, 1-[2-(2-{[4-chloro-3-({1-[4-(2-cyclopropoxyphenyl)pyridin-3-yl]cyclopropoxy}methyl)phenyl]sulfanyl}ethoxy)ethyl]-3-[(2S,3R,4S,5R)-1,3,4,5,6-pentahydroxyhexan-2-yl]urea], for which the EC50 is less than 100 nM. The same measure for `Cc1ccc(S(=O)(=O)N(C)CCCCNC(=O)N[C@@H](CO)[C@@H](O)[C@H](O)[C@H](O)CO)cc1CNC1(c2cnccc2-c2ccccc2OC2CC2)CC1` [Compound I-478, 1-(4-{N-methyl3-[({1-[4-(2-cyclopropoxyphenyl)pyridin-3-yl]cyclopropyl}amino)methyl]-4-methylbenzenesulfonamido}butyl)-3-[(2S,3R,4S,5R)-1,3,4,5,6-pentahydroxyhexan-2-yl]urea]: less than 100 nM; for `Cc1ccc([C@H](C)CCCC(=O)N(CCS(C)(=O)=O)C[C@H](O)[C@@H](O)[C@H](O)[C@H](O)CO)cc1CNC1(c2cnccc2-c2ccccc2OC2CC2)CC1` (single isomer, unassigned) [Compound I-368]: less than 100 nM. Take `CN(CCCCNC(=O)NC[C@H](O)[C@@H](O)[C@H](O)[C@H](O)CO)S(=O)(=O)c1ccc(Cl)c(COC2(c3cnccc3-c3ccccc3OC3CC3)CC2)c1` (stereo in doubt) [Compound I-402, 1-{4-[N-methyl4-chloro-3-({1-[4-(2-cyclopropoxyphenyl)pyridin-3-yl]cyclopropoxy}methyl)benzenesulfonamido]butyl}-3-[(2S,3R,4R,5R)-2,3,4,5,6-pentahydroxyhexyl]urea]: the EC50 was less than 100 nM.

For `CN(CCSc1ccc(Cl)c(CNC2(c3cnccc3-c3ccccc3OC3CC3)CC2)c1)C(=O)[C@@H](O)[C@@H](O)[C@H](O)[C@@H](O)CO` [Compound I-542, (2S,3S,4R,5S)-N-[2-({4-chloro-3-[({1-[4-(2-cyclopropoxyphenyl)pyridin-3-yl]cyclopropyl}amino)methyl]phenyl}sulfanyl)ethyl]-2,3,4,5,6-pentahydroxy-N-methylhexanamide], the EC50 was less than 100 nM. The same measure for `O=C([C@@H](O)[C@@H](O)[C@H](O)[C@@H](O)CO)N(CCCCSc1ccc(Cl)c(CNC2(c3cnccc3-c3ccccc3OC3CC3)CC2)c1)C1CCOCC1` [Compound I-535, (2S,3S,4R,5S)-N-[4-({4-chloro-3-[({1-[4-(2-cyclopropoxyphenyl)pyridin-3-yl]cyclopropyl}amino)methyl]phenyl}sulfanyl)butyl]-2,3,4,5,6-pentahydroxy-N-(oxan-4-yl)hexanamide]: 126 to 1000 nM. In the case of `CC(=O)N(CCCCCSc1ccc(Cl)c(CNC2(c3cnccc3-c3ccccc3OC3CC3)CC2)c1)C[C@H](O)[C@@H](O)[C@H](O)[C@H](O)CO` [Compound I-499, N-[5-({4-chloro-3-[({1-[4-(2-cyclopropoxyphenyl)pyridin-3-yl]cyclopropyl}amino)methyl]phenyl}sulfanyl)pentyl]-N-[(2S,3R,4R,5R)-2,3,4,5,6-pentahydroxyhexyl]acetamide], the EC50 was less than 100 nM. Next, `CC(CCCNC(=O)NC[C@H](O)[C@@H](O)[C@H](O)[C@H](O)CO)c1ccc(Cl)c(CNC2(c3cnccc3-c3ccccc3OC3CC3)CC2)c1` (stereo partly drawn) [Compound I-265, 1-(4-{4-chloro-3-[({1-[4-(2-cyclopropoxyphenyl)pyridin-3-yl]cyclopropyl}amino)methyl]phenyl}pentyl)-3-[(2S,3R,4R,5R)-2,3,4,5,6-pentahydroxyhexyl]urea]: less than 100 nM.

For `O=C(COCC1CN(S(=O)(=O)c2ccc(Cl)c(COC3(c4cnccc4-c4ccccc4OC4CC4)CC3)c2)C1)NC[C@H](O)[C@@H](O)[C@H](O)[C@H](O)CO` [Compound I-456, 2-({1-[4-chloro-3-({1-[4-(2-cyclopropoxyphenyl)pyridin-3-yl]cyclopropoxy}methyl)benzenesulfonyl]azetidin-3-yl}methoxy)-N-[(2S,3R,4R,5R)-2,3,4,5,6-pentahydroxyhexyl]acetamide], the EC50 was less than 100 nM. The same measure for `Cc1cc(COC2(c3cnccc3-c3ccccc3OC3CC3)CC2)c(Cl)cc1CCCCC(=O)NC[C@H](O)[C@@H](O)[C@H](O)[C@H](O)CO` [Compound I-145, 5-[5-chloro-4-({1-[4-(2-cyclopropoxyphenyl)pyridin-3-yl]cyclopropoxy}methyl)-2-methylphenyl]-N-[(2S,3R,4R,5R)-2,3,4,5,6-pentahydroxyhexyl]pentanamide]: less than 100 nM.

As to `COCCN(CCCCNC(=O)NC[C@H](O)[C@@H](O)[C@H](O)[C@H](O)CO)S(=O)(=O)c1ccc(Cl)c(COC2(c3cnccc3-c3ccccc3OC3CC3)CC2)c1` (stereo in doubt) [Compound I-407, 1-{4-[N-(2-methoxyethyl)4-chloro-3-({1-[4-(2-cyclopropoxyphenyl)pyridin-3-yl]cyclopropoxy}methyl)benzenesulfonamido]butyl}-3-[(2S,3R,4R,5R)-2,3,4,5,6-pentahydroxyhexyl]urea], the EC50 is less than 100 nM. The same measure for `O=C(CCN(CCC(=O)NC[C@H](O)[C@@H](O)[C@H](O)[C@H](O)CO)C(=O)CCCCc1cc(Cl)c(CNC2(c3cnccc3-c3ccccc3OC3CC3)CC2)cc1Cl)NC[C@H](O)[C@@H](O)[C@H](O)[C@H](O)CO` (stereo in doubt) [Compound I-170, 5-{2,5-dichloro-4-[({1-[4-(2-cyclopropoxyphenyl)pyridin-3-yl]cyclopropyl}amino)methyl]phenyl}-N,N-bis(2-{[(2S,3R,4R,5R)-2,3,4,5,6-pentahydroxyhexyl]carbamoyl}ethyl) pentanamide]: 1260 to 10000 nM. The same measure for `O=S(=O)(NCC(F)(F)F)c1ccc(Cl)c(COC2(c3cnccc3-c3ccccc3OC3CC3)CC2)c1` [Compound I-772, 4-chloro-3-((1-(4-(2-cyclopropoxyphenyl)pyridin-3-yl)cyclopropoxy)methyl)-N-(2,2,2-trifluoroethyl)benzenesulfonamide]: less than 100 nM; for `FC(F)(F)c1ccc(Cl)c(COC2(c3cnccc3-c3ccccc3OC3CC3)CC2)c1` [Compound I-52, 3-(1-{[2-chloro-5-(trifluoromethyl)phenyl]methoxy}cyclopropyl)-4-(2-cyclopropoxyphenyl)pyridine]: less than 100 nM. For `O=C(O)CCCC(=O)N(CCCCc1cc(Cl)c(CNC2(c3cnccc3-c3ccccc3OC3CC3)CC2)cc1Cl)C[C@H](O)[C@@H](O)[C@H](O)[C@H](O)CO` [Compound I-63, 4-[(4-[2,5-dichloro-4-[([1-[4-(2-cyclopropoxyphenyl)pyridin-3-yl]cyclopropyl]amino)methyl]phenyl]butyl) [(2S,3R,4R,5R)-2,3,4,5,6-pentahydroxyhexyl]carbamoyl]butanoic acid], the EC50 was 126 to 1000 nM. On to `COc1cc(C)ccc1-c1ccncc1C1(OCc2cc(Cl)ccc2Cl)CC1` [Compound I-774, 3-(1-((2,5-dichlorobenzyl)oxy)cyclopropyl)-4-(2-methoxy-4-methylphenyl)pyridine], for which the EC50 is 126 to 1000 nM. Take `CN(CCCCCNC(=O)N[C@@H](CO)[C@@H](O)[C@H](O)[C@H](O)CO)S(=O)(=O)c1ccc(Cl)c(COC2(c3cnccc3-c3ccccc3OC3CC3)CC2)c1` (stereo in doubt) [Compound I-405, 1-{5-[N-methyl4-chloro-3-({1-[4-(2-cyclopropoxyphenyl)pyridin-3-yl]cyclopropoxy}methyl)benzenesulfonamido]pentyl}-3-[(2S,3R,4S,5R)-1,3,4,5,6-pentahydroxyhexan-2-yl]urea]: the EC50 was less than 100 nM.

Turning to `O=C(NC[C@H](O)[C@@H](O)[C@H](O)[C@H](O)CO)C12CCC(NS(=O)(=O)c3ccc(Cl)c(COC4(c5cnccc5-c5ccccc5OC5CC5)CC4)c3)(CC1)CC2` [Compound I-445, 4-[4-chloro-3-({1-[4-(2-cyclopropoxyphenyl)pyridin-3-yl]cyclopropoxy}methyl)benzenesulfonamido]-N-[(2S,3R,4R,5R)-2,3,4,5,6-pentahydroxyhexyl]bicyclo[2.2.2]octane-1-carboxamide], the EC50 was 126 to 1000 nM. Next, `Cc1ccc(C(C)CCCC(=O)N(C[C@H](O)[C@@H](O)[C@H](O)[C@H](O)CO)C(C)C)cc1CNC1(c2cnccc2-c2ccccc2OC2CC2)CC1` (stereo partly drawn) [Compound I-353, 5-{3-[({1-[4-(2-cyclopropoxyphenyl)pyridin-3-yl]cyclopropyl}amino)methyl]-4-methylphenyl}-N-[(2S,3R,4R,5R)-2,3,4,5,6-pentahydroxyhexyl]-N-(propan-2-yl)hexanamide]: less than 100 nM. For `CCNC(=O)CCN(C[C@H](O)[C@@H](O)[C@H](O)[C@H](O)CO)C(=O)CCCC(C)c1ccc(C)c(CNC2(c3cnccc3-c3ccccc3OC3CC3)CC2)c1` (stereo partly drawn) [Compound I-365, 5-{3-[({1-[4-(2-cyclopropoxyphenyl)pyridin-3-yl]cyclopropyl}amino)methyl]-4-methylphenyl}-N-[2-(ethylcarbamoyl)ethyl]-N-[(2S,3R,4R,5R)-2,3,4,5,6-pentahydroxyhexyl]hexanamide], the EC50 was 126 to 1000 nM. `CN(CCSc1ccc(Cl)c(COC2(c3cnccc3-c3ccccc3OC3CC3)CC2)c1)C(=O)[C@@H](O)[C@@H](O)[C@H](O)[C@@H](O)CO` [Compound I-555, (2S,3S,4R,5S)-N-(2-{[4-chloro-3-({1-[4-(2-cyclopropoxyphenyl)pyridin-3-yl]cyclopropoxy}methyl)phenyl]sulfanyl}ethyl)-2,3,4,5,6-pentahydroxy-N-methylhexanamide]: the EC50 was less than 100 nM.
